Measured values as given in patent publication US20150191469A1, “COMPOUNDS AND METHODS FOR TREATING HIV” (priority 2012, published 2015).

The compounds below were run on HIV (assay: MT4 assay: antiviral HIV activity (cell protection, cell titer glo readout at 96 hours)). Conditions: Human immunodeficiency virus 1, MT4, 96 h, MT4 cells, cell titer glo readout at 96 hours, 10 point dose response; read-out: HIV MT4 Assay IC50.
Type: cell-based
Summary of the method: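 MT-4 cells infected with HIV, with inhibition readout by CellTiter-Glo luminescence at 96 h relative to no-compound control. Cytotoxicity measured in parallel under the same conditions. IC50 from a 10-point, 3-4-fold dilution series spanning >1000-fold, fitted with a four-parameter logistic equation.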

Row | SMILES | IC50
1 | Cc1nc2c(cc(C(=O)NCCN3CCCC3)n2C)c(-c2cc(F)c3c(c2C)CCCO3)c1[C@H](OC(C)(C)C)C(=O)O [Example 275] | 1000 nM
2 | Cc1nc2c(cc(C(=O)NCC3CCC3)n2C)c(-c2cc(F)c3c(c2C)CCCO3)c1[C@H](OC(C)(C)C)C(=O)O [Example 276] | 10 nM
3 | Cc1nc2c(cc(C(=O)N3CCN(C(C)C)CC3)n2C)c(-c2cc(F)c3c(c2C)CCCO3)c1[C@H](OC(C)(C)C)C(=O)O [Example 277] | 100 nM
4 | Cc1nc2c(cc(C(=O)N3CCC(N4CCCCC4)CC3)n2C)c(-c2cc(F)c3c(c2C)CCCO3)c1[C@H](OC(C)(C)C)C(=O)O [Example 278] | 110 nM
5 | COC(C)(C)CCNC(=O)c1cc2c(-c3cc(F)c4c(c3C)CCCO4)c([C@H](OC(C)(C)C)C(=O)O)c(C)nc2n1C [Example 279] | 10 nM
6 | Cc1nc2c(cc(C3CCC(C)(C)CC3)n2C)c(-c2cc(F)c3c(c2C)CCCO3)c1[C@H](OC(C)(C)C)C(=O)O [Example 283] | 400 nM
7 | Cc1nc2c(cc(CCc3ccnc4ccccc34)n2C)c(-c2cc(F)c3c(c2C)CCCO3)c1[C@H](OC(C)(C)C)C(=O)O [Example 284] | 15.7 nM
8 | Cc1nc2c(cc(CCc3ccncc3)n2C)c(-c2cc(F)c3c(c2C)CCCO3)c1[C@H](OC(C)(C)C)C(=O)O [Example 285] | 46.6 nM
9 | Cc1nc2c(cc(CCc3ccc4cnn(C)c4c3)n2C)c(-c2cc(F)c3c(c2C)CCCO3)c1[C@H](OC(C)(C)C)C(=O)O [Example 286] | 15 nM
10 | Cc1nc2c(cc(CN3CCCN(C4COC4)CC3)n2C)c(-c2cc(F)c3c(c2C)CCCO3)c1[C@H](OC(C)(C)C)C(=O)O [Example 289] | 171 nM
11 | COC[C@H]1CCCN1Cc1cc2c(-c3cc(F)c4c(c3C)CCCO4)c([C@H](OC(C)(C)C)C(=O)O)c(C)nc2n1C [Example 290] | 48.1 nM
12 | Cc1nc2c(cc(CN3CCc4ccc(N5CCCCC5)cc4C3)n2C)c(-c2cc(F)c3c(c2C)CCCO3)c1[C@H](OC(C)(C)C)C(=O)O [Example 291] | 44.4 nM
13 | Cc1nc2c(cc(CN3CCC[C@H]3C(=O)Nc3ccc4c(cnn4C)c3)n2C)c(-c2cc(F)c3c(c2C)CCCO3)c1[C@H](OC(C)(C)C)C(=O)O [Example 292] | 41.3 nM
14 | Cc1nc2c(cc(CN3CC[C@@H](NC(=O)c4ccc5c(cnn5C)c4)C3)n2C)c(-c2cc(F)c3c(c2C)CCCO3)c1[C@H](OC(C)(C)C)C(=O)O [Example 293] | 44.3 nM
15 | Cc1nc2c(cc(CN3CCC[C@H](NC(=O)c4ccc5c(cnn5C)c4)C3)n2C)c(-c2cc(F)c3c(c2C)CCCO3)c1[C@H](OC(C)(C)C)C(=O)O [Example 294] | 38.6 nM
16 | Cc1nc2c(cc(CN3CCC[C@@H]3CO)n2C)c(-c2cc(F)c3c(c2C)CCCO3)c1[C@H](OC(C)(C)C)C(=O)O [Example 295] | 51.2 nM
17 | Cc1nc2c(cc(CN(C)C(=O)c3ccc4c(cnn4C)c3)n2C)c(-c2cc(F)c3c(c2C)CCCO3)c1[C@H](OC(C)(C)C)C(=O)O [Example 296] | 28.5 nM
18 | Cc1nc2c(cc(CCC(=O)Nc3ccc4c(cnn4C)c3)n2C)c(-c2cc(F)c3c(c2C)CCCO3)c1[C@H](OC(C)(C)C)C(=O)O [Example 298] | 258 nM
19 | Cc1nc2c(cc(CCC(=O)N(C)c3ccc4c(cnn4C)c3)n2C)c(-c2cc(F)c3c(c2C)CCCO3)c1[C@H](OC(C)(C)C)C(=O)O [Example 299] | 39.3 nM

Row | SMILES | IC50
20 | Cc1nc2c(cc(-c3nnc(N4CCC(C)CC4)o3)n2C)c(-c2cc(F)c3c(c2C)CCCO3)c1[C@H](OC(C)(C)C)C(=O)O [Example 301] | 3.9 nM
21 | Cc1nc2c(cc(-c3nnc(N4CCCN(C5COC5)CC4)o3)n2C)c(-c2cc(F)c3c(c2C)CCCO3)c1[C@H](OC(C)(C)C)C(=O)O [Example 302] | 44.2 nM
22 | COC1CCN(c2nnc(-c3cc4c(-c5cc(F)c6c(c5C)CCCO6)c([C@H](OC(C)(C)C)C(=O)O)c(C)nc4n3C)o2)CC1 [Example 303] | 3.9 nM
23 | Cc1nc2c(cc(-c3nnc(NCC4CCOCC4)o3)n2C)c(-c2cc(F)c3c(c2C)CCCO3)c1[C@H](OC(C)(C)C)C(=O)O [Example 304] | 40.9 nM
24 | Cc1nc2c(cc(-c3nnc(N(C)CCN4CCCC4)o3)n2C)c(-c2cc(F)c3c(c2C)CCCO3)c1[C@H](OC(C)(C)C)C(=O)O [Example 305] | 44.9 nM
25 | Cc1nc2c(cc(-c3nnc(N4CCCN(C)CC4)o3)n2C)c(-c2cc(F)c3c(c2C)CCCO3)c1[C@H](OC(C)(C)C)C(=O)O [Example 306] | 51.8 nM
26 | COCCN(C)c1nnc(-c2cc3c(-c4cc(F)c5c(c4C)CCCO5)c([C@H](OC(C)(C)C)C(=O)O)c(C)nc3n2C)o1 [Example 307] | 12.3 nM
27 | Cc1nc2c(cc(-c3nnc(N(C)C)o3)n2C)c(-c2cc(F)c3c(c2C)CCCO3)c1[C@H](OC(C)(C)C)C(=O)O [Example 308] | 14 nM
28 | Cc1nc2c(cc(-c3nnc(N4CC5CN(C6COC6)CC5C4)o3)n2C)c(-c2cc(F)c3c(c2C)CCCO3)c1[C@H](OC(C)(C)C)C(=O)O (some centres unmarked) [Example 309] | 46 nM
29 | Cc1nc2c(cc(-c3nnc(N4CCOCC4)o3)n2C)c(-c2cc(F)c3c(c2C)CCCO3)c1[C@H](OC(C)(C)C)C(=O)O [Example 310] | 15.4 nM
30 | Cc1nc2c(cc(-c3nnc(N4CCCC4)o3)n2C)c(-c2cc(F)c3c(c2C)CCCO3)c1[C@H](OC(C)(C)C)C(=O)O [Example 311] | 4.5 nM
31 | Cc1nc2c(cc(-c3nnc(N4CCN(C)CC4)o3)n2C)c(-c2cc(F)c3c(c2C)CCCO3)c1[C@H](OC(C)(C)C)C(=O)O [Example 312] | 19.9 nM
32 | Cc1nc2c(cc(-c3nnc(CN4CCCCC4)o3)n2C)c(-c2cc(F)c3c(c2C)CCCO3)c1[C@H](OC(C)(C)C)C(=O)O [Example 313] | 8.4 nM
33 | Cc1nc2c(cc(-c3nnc(N4CCC(F)(F)CC4)o3)n2C)c(-c2cc(F)c3c(c2C)CCCO3)c1[C@H](OC(C)(C)C)C(=O)O [Example 314] | 7.6 nM
34 | Cc1nc2c(cc(-c3nnc(N4CCN(C5COC5)CC4)o3)n2C)c(-c2cc(F)c3c(c2C)CCCO3)c1[C@H](OC(C)(C)C)C(=O)O [Example 315] | 40.6 nM
35 | Cc1nc2c(cc(-c3nnc(N4CCS(=O)(=O)CC4)o3)n2C)c(-c2cc(F)c3c(c2C)CCCO3)c1[C@H](OC(C)(C)C)C(=O)O [Example 316] | 566 nM
36 | Cc1nc2c(cc(-c3nnc(N4CCC(N5CCCCC5)CC4)o3)n2C)c(-c2cc(F)c3c(c2C)CCCO3)c1[C@H](OC(C)(C)C)C(=O)O [Example 317] | 118 nM
37 | Cc1nc2c(cc(-c3nnc(N4CCC(N5CCOCC5)CC4)o3)n2C)c(-c2cc(F)c3c(c2C)CCCO3)c1[C@H](OC(C)(C)C)C(=O)O [Example 318] | 14.2 nM
38 | Cc1nc2c(cc(-c3nnc(N4CCN(S(=O)(=O)N5CCCCC5)CC4)o3)n2C)c(-c2cc(F)c3c(c2C)CCCO3)c1[C@H](OC(C)(C)C)C(=O)O [Example 319] | 4.9 nM

Row | SMILES | IC50
39 | Cc1nc2c(cc(-c3nnc(N4CCC(N5CCS(=O)(=O)CC5)CC4)o3)n2C)c(-c2cc(F)c3c(c2C)CCCO3)c1[C@H](OC(C)(C)C)C(=O)O [Example 320] | 380 nM
40 | Cc1nc2c(cc(-c3nnc(N4CCC5(CCCCC5)CC4)o3)n2C)c(-c2cc(F)c3c(c2C)CCCO3)c1[C@H](OC(C)(C)C)C(=O)O [Example 321] | 13.5 nM
41 | Cc1nc2c(cc(-c3nnc(N4CCN(CC5CCOCC5)CC4)o3)n2C)c(-c2cc(F)c3c(c2C)CCCO3)c1[C@H](OC(C)(C)C)C(=O)O [Example 322] | 4.6 nM
42 | Cc1nc2c(cc(-c3nnc(N4CCC(OC(C)C)CC4)o3)n2C)c(-c2cc(F)c3c(c2C)CCCO3)c1[C@H](OC(C)(C)C)C(=O)O [Example 323] | 5.2 nM
43 | Cc1nc2c(cc(-c3nnc(N4CCC[C@@H]4C)o3)n2C)c(-c2cc(F)c3c(c2C)CCCO3)c1[C@H](OC(C)(C)C)C(=O)O [Example 324] | 4 nM
44 | Cc1nc2c(cc(-c3nnc(N4CCC4)o3)n2C)c(-c2cc(F)c3c(c2C)CCCO3)c1[C@H](OC(C)(C)C)C(=O)O [Example 325] | 13.6 nM
45 | Cc1nc2c(cc(-c3nnc(N4CCN5CCC[C@@H]5C4)o3)n2C)c(-c2cc(F)c3c(c2C)CCCO3)c1[C@H](OC(C)(C)C)C(=O)O [Example 326] | 3.8 nM
46 | Cc1nc2c(cc(-c3nnc(N4CCC(n5cccn5)CC4)o3)n2C)c(-c2cc(F)c3c(c2C)CCCO3)c1[C@H](OC(C)(C)C)C(=O)O [Example 327] | 9.4 nM
47 | Cc1nc2c(cc(-c3nnc(N4CCN(C5CCOCC5)C[C@H]4C)o3)n2C)c(-c2cc(F)c3c(c2C)CCCO3)c1[C@H](OC(C)(C)C)C(=O)O [Example 328] | 4.2 nM
48 | Cc1nc2c(cc(-c3nnc(N4CCOC[C@@H]4C)o3)n2C)c(-c2cc(F)c3c(c2C)CCCO3)c1[C@H](OC(C)(C)C)C(=O)O [Example 329] | 13.4 nM
49 | COC[C@H]1CCCN1c1nnc(-c2cc3c(-c4cc(F)c5c(c4C)CCCO5)c([C@H](OC(C)(C)C)C(=O)O)c(C)nc3n2C)o1 [Example 330] | 12.8 nM
50 | Cc1nc2c(cc(-c3nnc(N4CC[C@@H](F)C4)o3)n2C)c(-c2cc(F)c3c(c2C)CCCO3)c1[C@H](OC(C)(C)C)C(=O)O [Example 331] | 4.3 nM
51 | Cc1nc2c(cc(-c3nnc(N4CC[C@H](N(C)C)C4)o3)n2C)c(-c2cc(F)c3c(c2C)CCCO3)c1[C@H](OC(C)(C)C)C(=O)O [Example 332] | 23.8 nM
52 | Cc1nc2c(cc(-c3nnc(N4CCN5CCOC[C@@H]5C4)o3)n2C)c(-c2cc(F)c3c(c2C)CCCO3)c1[C@H](OC(C)(C)C)C(=O)O [Example 333] | 16.5 nM
53 | Cc1nc2c(cc(-c3nnc(N4CCOC[C@H]4C)o3)n2C)c(-c2cc(F)c3c(c2C)CCCO3)c1[C@H](OC(C)(C)C)C(=O)O [Example 334] | 10.4 nM
54 | Cc1nc2c(cc(-c3nnc(N4CCN(C5CCOCC5)[C@@H](C)C4)o3)n2C)c(-c2cc(F)c3c(c2C)CCCO3)c1[C@H](OC(C)(C)C)C(=O)O [Example 335] | 10.1 nM
55 | Cc1nc2c(cc(-c3nnc(N4CCN(C5CC5)CC4)o3)n2C)c(-c2cc(F)c3c(c2C)CCCO3)c1[C@H](OC(C)(C)C)C(=O)O [Example 336] | 4.5 nM
56 | Cc1nc2c(cc(-c3nnc(N4CCN(CC5CC5)CC4)o3)n2C)c(-c2cc(F)c3c(c2C)CCCO3)c1[C@H](OC(C)(C)C)C(=O)O [Example 337] | 4.6 nM
